Results as given in patent publication US20220289753A1, “SHP2 INHIBITORS” (IRBM S.P.A., priority 2019, published 2022).
Read-outs that look alike come from different tables or passages of the source.

Legend:
[1] = target: T1, SHP-2 enzyme (Met1-Leu525) (Homo sapiens, UniProt Q06124); assay: SHP2 inhibition enzymatic assay (DiFMUP substrate, IRS1 peptide activation); format: biochemical; conditions: SHP2 wt; activated by 500 nM IRS1 peptide; 75 μM DiFMUP substrate
T1 construct: synthetized by Origene, Met1-Leu525, cat #TP750155; purchased Origene TP750155
T1 sequence (Q06124 1-525): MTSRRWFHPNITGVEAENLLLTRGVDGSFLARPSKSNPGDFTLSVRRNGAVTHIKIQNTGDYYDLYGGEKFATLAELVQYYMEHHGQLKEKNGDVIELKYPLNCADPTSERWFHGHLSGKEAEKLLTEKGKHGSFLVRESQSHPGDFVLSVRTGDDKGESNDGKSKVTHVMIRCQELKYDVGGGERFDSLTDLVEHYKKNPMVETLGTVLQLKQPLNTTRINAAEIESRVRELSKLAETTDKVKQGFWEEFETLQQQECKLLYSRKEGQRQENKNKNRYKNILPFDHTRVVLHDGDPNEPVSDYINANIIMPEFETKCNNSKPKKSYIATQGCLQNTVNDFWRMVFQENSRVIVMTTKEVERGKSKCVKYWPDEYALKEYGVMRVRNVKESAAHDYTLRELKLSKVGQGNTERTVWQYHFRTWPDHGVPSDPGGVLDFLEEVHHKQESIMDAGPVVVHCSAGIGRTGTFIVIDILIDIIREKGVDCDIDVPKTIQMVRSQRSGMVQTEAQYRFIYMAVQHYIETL
Method in brief: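 SHP-2 (Met1-Leu525, 0.5 nM final) preincubated 30 min with compounds and IRS1 activating peptide in HEPES pH 7.2 buffer with NaCl, KCl, EDTA, tween-20, 5 mM DTT. DiFMUP then added for 30 min at room temperature and fluorescence read. IC50 from four-parameter logistic fit of % inhibition.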

[2] = system: ERK phosphorylation in KYSE-520 cells; assay: Phospho-ERK cellular assay (Advanced phospho-ERK1/2 (Thr202/Tyr204) TR-FRET kit); format: cell-based; conditions: Homo sapiens, KYSE-520, 2 h, read-out: pERK IC50
Description: Phospho-ERK Cellular Assay
ERK phosphorylation was detected using the “Advanced phospho-ERK1/2 (Thr202/Tyr204)” TR-FRET kit (Cisbio, Cat #64AERPEG/H), following the manufacturer reagents and instructions. […] After an overnight incubation, cells were treated with DMSO serial diluted compounds and incubated for 2 h at 37° C. After incubation, 2 μL/well of 4× Lysis Buffer (Cisbio 64KL1FDF), were added and incubated with cells for 30 min on gentle shaking. Finally, lysates were added with 2 μL/well of Eu cryptate (donor) and D2 (acceptor) conjugated antibodies (as provided by the Cisbio kit #64AERPEG/H) diluted 1:100 in Detection Buffer (as provided by the Cisbio kit #64AERPEG/H). Plates were then sealed and incubated at room temperature in the dark. After an overnight incubation, the TR-FRET signal was detected on a suitable reader (Envision, PerkinElmer). The lower the TR-FRET signal the higher the higher the SHP2 inhibition in cells. […] The percentage activity is fitted against the compound dilutions with a four-parameter logistic regression. The inflection point (i.e. the concentration at which half-maximal inhibition is achieved) is the IC50.

[3] = KYSE-520 cells, 2 h at 37° C., TR-FRET

IC50 [1]	IC50 [2, 3]	SMILES	IC50 [2]
< 0.5 µM	1 to 5 µM	N[C@@H]1c2ccccc2CC12CCN(c1nc3nc(Sc4cccnc4OCc4ncco4)cnc3[nH]1)CC2 [Example 235, (S)-1′-(5-((2-(oxazol-2-ylmethoxy)pyridin-3-yl)thio)-1H-imidazo[4,5-b]pyrazin-2-yl)-1,3-dihydrospiro[indene-2,4′-piperidin]-1-amine]	
0.5 to 3 µM	> 5 µM	CNc1nccc(-c2cnc3[nH]c(N4CCC5(CC4)Cc4ccccc4[C@H]5N)nc3n2)c1Cl [Example 140, (S)-1′-(5-(3-chloro-2-(methylamino)pyridin-4-yl)-1H-imidazo[4,5-b]pyrazin-2-yl)-1,3-dihydrospiro[indene-2,4′-piperidin]-1-amine]	
< 0.5 µM	< 1 µM	N#Cc1ccc2c(c1)[C@H](N)C1(CCN(c3nc4nc(Sc5ccnc(N)c5Cl)cnc4[nH]3)CC1)C2 [Example 260, (R)-1-amino-1′-(5-((2-amino-3-chloropyridin-4-yl)thio)-1H-imidazo[4,5-b]pyrazin-2-yl)-1,3-dihydrospiro[indene-2,4′-piperidine]-6-carbonitrile]	
< 0.5 µM	< 1 µM	COc1ccc2c(c1)[C@@H](N)C1(CCN(c3nc4nc(Sc5ccnc(N)c5Cl)cnc4[nH]3)CC1)C2 [Example 205, (S)-1′-(5-((2-amino-3-chloropyridin-4-yl)thio)-1H-imidazo[4,5-b]pyrazin-2-yl)-6-methoxy-1,3-dihydrospiro[indene-2,4′-piperidin]-1-amine]	
< 0.5 µM	< 1 µM	Nc1nccc(Sc2cnc3nc(N4CCC5(CC4)Cc4ccc(F)cc4[C@H]5N)[nH]c3n2)c1Cl [Example 175, (S)-1′-(6-((2-amino-3-chloropyridin-4-yl)thio)-1H-imidazo[4,5-b]pyrazin-2-yl)-6-fluoro-1,3-dihydrospiro[indene-2,4′-piperidin]-1-amine]	
< 0.5 µM	1 to 5 µM	CC1(N)CCN(c2nc3nc(Sc4cccc5nccnc45)cnc3[nH]2)CC1 [Example 71, 4-methyl-1-(5-(quinoxalin-5-ylthio)-1H-imidazo[4,5-b]pyrazin-2-yl)piperidin-4-amine]	
< 0.5 µM	< 1 µM	N[C@@H]1c2ccccc2OC12CCN(c1nc3nc(Sc4ccnc(NC5CC5)c4Cl)cnc3[nH]1)CC2 [Example 174, (R)-1′-(5-((3-chloro-2-(cyclopropylamino)pyridin-4-yl)thio)-1H-imidazo[4,5-b]pyrazin-2-yl)-3H-spiro[benzofuran-2,4′-piperidin]-3-amine]	
< 0.5 µM	< 1 µM	COC(=O)c1c(N2CCC3(CC2)Cc2ccccc2[C@H]3N)[nH]c2ncc(Sc3cccc(Cl)c3Cl)nc12 [Example 253, methyl (S)-6-(1-amino-1,3-dihydrospiro[indene-2,4′-piperidin]-1′-yl)-2-((2,3-dichlorophenyl)thio)-5H-pyrrolo[2,3-b]pyrazine-7-carboxylate]	
< 0.5 µM	< 1 µM	N#CC1CN(c2nccc(Sc3cnc4[nH]c(N5CCC6(CC5)Cc5ccccc5[C@H]6N)nc4n3)c2Cl)C1 [Example 191, (S)-1-(4-((2-(1-amino-1,3-dihydrospiro[indene-2,4′-piperidin]-1′-yl)-1H-imidazo[4,5-b]pyrazin-5-yl)thio)-3-chloropyridin-2-yl)azetidine-3-carbonitrile]	
> 3 µM	1 to 5 µM	COc1ncc(CN)cc1Sc1cnc2[nH]c(N3CCC4(CC3)Cc3ccccc3[C@H]4N)nc2n1 [Example 250, (1S)-1′-[5-[5-(aminomethyl)-2-methoxy-pyridin-3-yl]sulfanyl-1H-imidazo[4,5-b]pyrazin-2-yl]spiro[1,3-dihydroindene-2,4′-piperidine]-1-amine]	
< 0.5 µM	< 1 µM	N[C@@H]1c2ccccc2CC12CCN(c1nc3nc(Sc4ccnc5[nH]ccc45)cnc3[nH]1)CC2 [Example 232, (S)-1′-(5-((1H-pyrrolo[2,3-b]pyridin-4-yl)thio)-1H-imidazo[4,5-b]pyrazin-2-yl)-1,3-dihydrospiro[indene-2,4′-piperidin]-1-amine]	
< 0.5 µM	< 1 µM	CNc1nccc(Sc2cnc3[nH]c(N4CCC5(CC4)Cc4ncccc4[C@H]5N)nc3n2)c1Cl [Example 146, (S)-1′-(5-((3-chloro-2-(methylamino)pyridin-4-yl)thio)-1H-imidazo[4,5-b]pyrazin-2-yl)-5,7-dihydrospiro[cyclopenta[b]pyridine-6,4′-piperidin]-5-amine]	
< 0.5 µM	< 1 µM	COc1ncccc1Sc1cnc2[nH]c(N3CCC4(CC3)Cc3ccc(Br)cc3[C@H]4N)nc2n1 [Example 231, (S)-6-bromo-1′-(5-((2-methoxypyridin-3-yl)thio)-1H-imidazo[4,5-b]pyrazin-2-yl)-1,3-dihydrospiro[indene-2,4′-piperidin]-1-amine]	
< 0.5 µM	< 1 µM	Nc1nccc(Sc2cnc3[nH]c(N4CCC5(CC4)Cc4ccc(CF)cc4[C@H]5N)nc3n2)c1Cl [Example 245, (S)-1′-(5-((2-amino-3-chloropyridin-4-yl)thio)-1H-imidazo[4,5-b]pyrazin-2-yl)-6-(fluoromethyl)-1,3-dihydrospiro[indene-2,4′-piperidin]-1-amine]	
		FC(F)(F)c1ncccc1Sc1cnc2[nH]c(N3CCC4CCC(C3)N4)nc2n1 (centres unmarked) [Example 125, 2-(3,9-diazabicyclo[4.2.1]nonan-3-yl)-5-((2-(trifluoromethyl)pyridin-3-yl)thio)-1H-imidazo[4,5-b]pyrazine]	> 5 µM
		FC(F)(F)c1ncccc1Sc1cnc2nc(NC3CCNC4(CCC4)C3)[nH]c2n1 (centres unmarked) [Example 126, N-(5-azaspiro[3.5]nonan-8-yl)-6-((2-(trifluoromethyl)pyridin-3-yl)thio)-1H-imidazo[4,5-b]pyrazin-2-amine]	> 5 µM
	< 1 µM	Nc1nccc(Sc2cnc3[nH]c(N4CCC5(CC4)Oc4ccccc4[C@H]5N)nc3n2)c1Cl [Example 35, (R)-1′-(5-((2-amino-3-chloropyridin-4-yl)thio)-1H-imidazo[4,5-b]pyrazin-2-yl)-3H-spiro[benzofuran-2,4′-piperidin]-3-amine]	
		CC1(C)C2CNCC1CN(c1nc3nc(Sc4cccnc4C(F)(F)F)cnc3[nH]1)C2 [Example 124, 2-(9,9-dimethyl-3,7-diazabicyclo[3.3.1]nonan-3-yl)-5-((2-(trifluoromethyl)pyridin-3-yl)thio)-1H-imidazo[4,5-b]pyrazine]	> 5 µM
		FC(F)(F)c1ncccc1Sc1cnc2[nH]c(NCC3CNC(c4ccccc4)C3)nc2n1 (centres unmarked) [Example 128, N-((5-phenylpyrrolidin-3-yl)methyl)-5-((2-(trifluoromethyl)pyridin-3-yl)thio)-1H-imidazo[4,5-b]pyrazin-2-amine]	> 5 µM
> 3 µM		Cn1cnc(C2CCN(c3nc4nc(Sc5cccnc5C(F)(F)F)cnc4[nH]3)CC2)c1 [Example 53, 2-(4-(1-methyl-1H-imidazol-4-yl)piperidin-1-yl)-5-((2-(trifluoromethyl)pyridin-3-yl)thio)-1H-imidazo[4,5-b]pyrazine]	
> 3 µM		NC1CCC2OC1CC2Nc1nc2nc(Sc3cccnc3C(F)(F)F)cnc2[nH]1 (centres unmarked) [Example 109, N6-(5-((2-(trifluoromethyl)pyridin-3-yl)thio)-1H-imidazo[4,5-b]pyrazin-2-yl)-8-oxabicyclo[3.2.1]octane-2,6-diamine]	
> 3 µM		Cc1ccsc1Sc1cnc2[nH]c(N3CCC(C)(N)CC3)nc2n1 [Example 68, 4-methyl-1-(5-((3-methylthiophen-2-yl)thio)-1H-imidazo[4,5-b]pyrazin-2-yl)piperidin-4-amine]	
0.5 to 3 µM		FC(F)(F)c1ncccc1Sc1cnc2[nH]c(N3CCC4(CCN4)CC3)nc2n1 [Example 5, 2-(1,7-diazaspiro[3.5]nonan-7-yl)-5-((2-(trifluoromethyl)pyridin-3-yl)thio)-1H-imidazo[4,5-b]pyrazine]	
> 3 µM		Nc1cnc2c(c1)CN(c1nc3nc(Sc4cccnc4C(F)(F)F)cnc3[nH]1)CC2 [Example 108, 6-(5-((2-(trifluoromethyl)pyridin-3-yl)thio)-1H-imidazo[4,5-b]pyrazin-2-yl)-5,6,7,8-tetrahydro-1,6-naphthyridin-3-amine]	
